Laboratory results taken from patent US8623340B2, “Omega-cyclohexylalkan-1-oles and use thereof as antimicrobial actives to combat body odor” (Symrise AG, priority 2009, dated 2014).
Converted amounts (≈) assume the structure as drawn.

Experiments:
Assay type in all cases: cell-based
[1] = system: Staphylococcus epidermidis (ATCC 12228); test: MIC determination by turbidimetric growth curves; details: ATCC12228, 16 h, 37° C., turbidimetry 620 nm, read-out: MIC (complete inhibition of growth, usage concentration)
Description: (§1) The observation that the compounds of formula (I) are very particularly suitable for combating microorganisms which are responsible for body odor is based on a series of investigations relating to the particularly relevant microorganisms Staphylococcus epidermidis Corynebacterium xerosis, and Brevibacterium epidermidis. The antimicrobial action of the compounds of formula (I) is here detected with the assistance of a turbidimetric measurement method. Turbidity measurement is used to establish growth curves for the particular microorganism in the presence and absence of an antimicrobial active ingredient. A possible inhibitory action of the test substance used is identified from the profile of the growth curves. Solutions with saline or DMSO for 100% growth are prepared as a negative control. The active substances to be investigated are first diluted in DMSO in reaction vessels. Dilution is carried out in accordance with the concentration range to be tested and corresponds in each case to 100 times the concentration of the subsequent final concentration in the test Testing is usually begun with a final concentration of 2000 ppm (corresponding to 0.2 wt.-%) in the test. Growth curves at final concentrations of 1000 ppm, 500 ppm, 250 ppm, 125 ppm, 64 ppm, 32 ppm, 16 ppm and 8 ppm are subsequently determined. The bacterial cultures are then incubated in the presence of the various final concentrations of antimicrobial active ingredient for 16 h (incubation temperature: 37° C.). The absorption values (wavelength 620 nm; measurement interval: 20 minutes) obtained over the 16 hour period of turbidimetric measurement are recorded and exported into the spreadsheet program MS Excel. Means from in each case three parallel batches are calculated and used as the basis for establishing growth curves. The curves of the individual test sample concentrations are compared with those for the negative controls and the MIC value (minimum inhibitory concentration) is determined. The MIC value is the concentration at which no further growth is observable by turbidimetry.

[2] = system: Brevibacterium epidermidis (ATCC 35514); test: MIC determination by turbidimetric growth curves; details: 16 h, 37° C., turbidimetry 620 nm
Description: as §1

[3] = system: Corynebacterium xerosis (DSM 20743); test: MIC determination by turbidimetric growth curves; details: 16 h, 37° C., turbidimetry 620 nm
Description: as §1

[4] = system: Brevibacterium epidermidis (ATCC 35514); test: quantitative suspension test
[5] = system: Corynebacterium xerosis (DSM 20743); test: quantitative suspension test
[6] = system: Staphylococcus epidermidis (ATCC 12228); test: quantitative suspension test
[7] = system: Corynebacterium xerosis (DSM 20743, ATCC 373) biofilm; test: Biofilm, mid-log assay on pre-existing biofilm (crystal violet staining CV580); details: 12.5 μg
Description: The recognition that the compounds of formula (I) are also very particularly suitable for either inhibition of initial biofilm formation and stagnation or even detachment of pre-existing biofilms is based on a series of investigations relating to the particularly relevant microorganism Corynebacterium xerosis. The antimicrobial action of the compounds of formula (I) on biofilms is hereby detected with the assistance of a staining method. Crystal violet staining is used to quantify amount of biofilm in the presence and absence of an antimicrobial active ingredient. A possible inhibitory action of the test substance used is identified from the staining profile. […] Biofilm formation can be analyzed by crystal violet staining with subsequent spectroscopic quantitation at 580 nm (CV580). […] Optical density OD580 was then measured followed by crystal violet staining and spectroscopic quantitation of the biofilm at 580 nm (CV580). Mid-log time point was determined by cultivating untreated C. xerosis cells on separate control plates. CV580 crystal violet staining data of untreated control cells at mid-log were recorded. […] CV580 of untreated control samples was also recorded. […] Thus, untreated control cells will reach a value of 200%, corresponding to twice the exactly determined mid-log time point (half-maximal values for CV580; which was set 100%). […]

[8] = system: Corynebacterium xerosis (DSM 20743, ATCC 373) biofilm; test: Biofilm formation, classic assay (crystal violet staining CV580); details: 12.5 μg/ml
Description: The recognition that the compounds of formula (I) are also very particularly suitable for either inhibition of initial biofilm formation and stagnation or even detachment of pre-existing biofilms is based on a series of investigations relating to the particularly relevant microorganism Corynebacterium xerosis. The antimicrobial action of the compounds of formula (I) on biofilms is hereby detected with the assistance of a staining method. Crystal violet staining is used to quantify amount of biofilm in the presence and absence of an antimicrobial active ingredient. A possible inhibitory action of the test substance used is identified from the staining profile. Corynebacterium xerosis can adhere to artificial laboratory surfaces and contribute to biofilm formation much the same way as it can do on skin in vivo. Therefore we furtheron established a test system to evaluate the influence of antimicrobial active compounds of formula (I) on Corynebacterium xerosis forming a biofilm or already residing in a biofilm. […] Biofilm formation can be analyzed by crystal violet staining with subsequent spectroscopic quantitation at 580 nm (CV580). […] Anti-microbial effects of test compounds on biofilm formation was determined by CV580 crystal violet staining 18-24 hours after inoculation and several washing steps that are needed to separate planctonic grown microorganisms.

| SMILES | MIC [1] | concentration establishing inhibition of the growth [2] | concentration establishing inhibition of the growth [3] | antimicrobial activity in quantitative suspension test [4] | antimicrobial activity in quantitative suspension test [5] | antimicrobial activity in quantitative suspension test [6] | biofilm observed compared to the untreated control (set to 200%; mid-log value 100%) [7] | biofilm formation inhibition [8] |
| --- | --- | --- | --- | --- | --- | --- | --- | --- |
| CCCC(CO)CCCC1CCCCC1 (stereo not shown) [5-cyclohexyl-2-n-propyl-pentanol] | 16 mg/L (≈ 75.3 µM) | below 0.2 wt. % | below 0.2 wt. % | confirm the antimicrobial activity | confirm the antimicrobial activity | confirm the antimicrobial activity | 100% | 65% |
| CC(CO)CCCC1CCCCC1 (stereo not shown) [5-cyclohexyl-2-methyl-pentanol] | 64 mg/L (≈ 347 µM) | below 0.2 wt. % | below 0.2 wt. % | confirm the antimicrobial activity | confirm the antimicrobial activity | confirm the antimicrobial activity | 53% | 92% |
